Literature values in PMC3372989, “Conformational Differences between Active Angiotensins and Their Inactive Precursors” (Acta Naturae, 2012).

How the values were obtained:
[1] = background statement, no reference printed directly at the statement
receptors of Ang2 = conditions: ref [4]
Description: The oft-cited example of the structural differences between peptides found in their protein precursor and peptides in a free state is human angiotensinogen and its metabolites; i.e. , angiotensins 1, 2 and 3. Angiotensin 1 (Ang1) is a prohormone that consists of 10 amino acid residues and is produced from angiotensinogen as a result of the cleavage of the N-terminal peptide. […] Angiotensin 2 (Ang2) differs from angiotensin 1 by the absence of two C-terminal amino acid resi ...

[2] = doses needed for immunization (10–50 µg/mouse), even intramuscular and subcutaneous injections
Description: The human and mouse angiotensins 1, as well as angiotensins 2 and 3, have identical amino acid sequences. […] Altogether, it makes angiotensins extremely inconvenient immunogens; however, their conjugation with Hsp70, an adjuvant protein from M. tuberculosis, allowed to overcome the immunological tolerance and to eliminate the toxicity. As a result, we ob ...

Row | Substance | physiological activity [1] | binding to the receptors of Ang2 (receptors of Ang2) | fatal outcome on introduction into the body [2]
1 | angiotensin 1 | exhibits no physiological activity | incapable of binding to the receptors of Ang2 | –
2 | angiotensin 2 | exhibit physiological activity | – | leads to a fatal outcome
